The values below come from EPA's aquatic toxicity sets.

The structures appear in SMILES notation.

The test system of the data set is Tetrahymena pyriformis. Put plainly: 48 h IGC50 (-log10 mol/L); higher = more toxic.
Take `CCCCCCCCCCC(=O)OC`: the “48 h IGC50 (-log10 mol/L)” value turned out to be 4.42.

Take `O=[N+]([O-])c1cccc2ncccc12`: the “48 h IGC50 (-log10 mol/L)” value is 3.39. As for `CCCCCCCCC(C)O` (centres undefined), the figure is 3.99; as for `CNCCO`, 1.18. As for `O=C/C=C/c1ccco1`, the figure is 3.37; as for `O=[N+]([O-])c1cccc(-c2ccccc2)c1`, 4.57.

For the compound `CCC(C)CC(=O)O` (centres undefined), the “48 h IGC50 (-log10 mol/L)” value was 2.77.

For `c1ccc(Cc2ccncc2)cc1`, the “48 h IGC50 (-log10 mol/L)” value was 3.63.

With `CCCCCCO`, the “48 h IGC50 (-log10 mol/L)” value is 2.62. For `C/C=C/C(=O)OCCCC`, the “48 h IGC50 (-log10 mol/L)” value was 2.84. As for `CCCCOc1ccc(O)cc1`, the figure is 3.7; as for `CCOC(=O)C(C)CC` (centres undefined), 2.11. The result for `CCCCCCc1ccc(O)cc1O` reads 4.8. The result for `CCOC(=O)C(C#N)c1ccccc1` (centres undefined) reads 2.98; that for `C=Cc1ccc2ccccc2c1`, 4.24; that for `CCOC(=O)C(Br)C(C)C` (centres undefined), 3.02. On to `CCNc1ccccc1`, for which the “48 h IGC50 (-log10 mol/L)” value came out at 3.07. Take `CC(=O)c1c(C)c[nH]c1C`: the “48 h IGC50 (-log10 mol/L)” value was found to be 2.68.

In the case of `Cc1nccnc1C`, the “48 h IGC50 (-log10 mol/L)” value stood at 2.13. On to `NNC(=O)c1ccccc1O`, for which the “48 h IGC50 (-log10 mol/L)” value was 3.18. As for `CC(=O)c1cc(C)c(C)cc1O`, the figure is 3.71; as for `Oc1cc(Cl)cc(Cl)c1`, 4.56; as for `CC(=O)C(C)Cl` (centres undefined), 3.27. As for `CC(CCO)c1ccccc1` (centres undefined), the figure is 3.01. As for `CCCCCCC(C)=O`, the figure is 2.85; as for `CCOC(=O)c1ccc([N+](=O)[O-])cc1`, 3.71; as for `CCCCCCCCOC(C)=O`, 4.06. As to `C#CC(=O)OC`, the “48 h IGC50 (-log10 mol/L)” value stood at 4.77.

As for `CCCCCCCS`, the “48 h IGC50 (-log10 mol/L)” value is 4.02.

On to `O=[N+]([O-])c1cc(Br)ccc1O`, for which the “48 h IGC50 (-log10 mol/L)” value stood at 4.87. The result for `O=Cc1cccc(Cl)c1` reads 3.41; that for `CC(=O)OC/C=C/c1ccccc1`, 3.59; that for `O=C(O)c1c(Cl)cc(Cl)cc1Cl`, 2.59. The result for `CC(C)C(C)O` (centres undefined) reads 2.

`OCc1ccccc1F`: the “48 h IGC50 (-log10 mol/L)” value is 2.33. The result for `CCC(=O)c1ccc(O)cc1` reads 3.12; that for `O=Cc1cccs1`, 2.95; that for `O=[N+]([O-])c1ccccc1Br`, 3.75.

On to `CC=CC(=O)OC(C)C`, for which the “48 h IGC50 (-log10 mol/L)” value was found to be 2.22. The result for `O=[N+]([O-])c1c(Cl)ncnc1Cl` reads 5.12; that for `C#CC=CCO`, 2.44; that for `Nc1cc(Cl)ccc1O`, 3.78. On to `ClC/C=C/CCl`, for which the “48 h IGC50 (-log10 mol/L)” value worked out at 3.77. As for `CCCCCCCCCCCN`, the figure is 5.33; as for `Clc1sccc1Br`, 3.73.

As to `CCOC(=O)c1ccc(F)cc1`, the “48 h IGC50 (-log10 mol/L)” value stood at 3.01. The result for `O=Cc1ccc(-c2ccccc2)cc1` reads 4.12; that for `Nc1c(Br)cc([N+](=O)[O-])cc1[N+](=O)[O-]`, 4.24; that for `CCCCCCC=CCO`, 3.77. The result for `OCC(Cl)Cl` reads 2.01. For `O=[N+]([O-])c1ccc(Br)s1`, the “48 h IGC50 (-log10 mol/L)” value came out at 4.41. The result for `CC(C)(CO)CBr` reads 2.54. With `Clc1cccc(Cl)c1Br`, the “48 h IGC50 (-log10 mol/L)” value came out at 4.34. The result for `CCS(=O)(=O)c1ccccc1` reads 2.21.
